Data on one compound can be found in paper PMC10888717, “Identification of Novel Non-Nucleoside Inhibitors of Zika Virus NS5 Protein Targeting MTase Activity” (International Journal of Molecular Sciences, 2024).

One data set relates to ZIKV. In words: ZIKV inhibitory viral plaque reduction assay in Vero E6 cells. The data set is classed as cell-based, Zika virus. On the technique in general: Plaque reduction counts the foci of infection that form in a cell layer.
The nature of data set [1]: Cytotoxicity assay (MTT) on Vero E6 cells. The data set is classed as cell-based. The following applies: African green monkey; VERO E6 cells, MTT, 3 days; read-out: CC50 ± SD (half-maximal cytotoxic concentration). Here is the method: Compounds characterized by the best anti-enzymatic activity were tested against ZIKV in cellular assays. VERO E6 cells were infected with ZIKV at a multiplicity of infection (M.O.I.) of 0.1, and their activities were evaluated by a plaque reduction assay three days post-infection. Ribavirin was used as a reference compound. As reported in Table 2, compound 1, identified in the first screening, was unable to inhibit viral replication up to a 100 μM concentration. […] The cytotoxicity of the series was determined on the same cell line. […] Their selectivity indexes were calculated as the ratio between CC50 and IC50 values; the results highlight their promising safety profile.
Monolayers of 2.5 × 10^4 Vero E6 cells per well were grown in flat-bottom 96-well culture plates and allowed to adhere overnight. Then, when the cell layers were confluent, the medium was removed, the wells were washed twice with PBS, treated with 100 µL of DMEM with 10 µL DMSO alone (cell positive control) or with various concentrations of anti-NS5 inhibitory compounds under study (compound final concentrations of 100, 10, 1, 0.1, and 0.01 μM), and incubated for 3 days at 37 °C in a CO2. After treatment, an MTT (3-(4,5-dimethylthiazol-2-yl)-2,5-diphenyltetrazolium bromide) kit (Roche, Milan, Italy) was used according to the supplier’s instructions, and the absorbance of each well was determined using a microplate spectrophotometer at a wavelength of 570 nm. Cytotoxicity was calculated by dividing the average optical density of treated samples by the average of DMSO-treated samples (cell positive control).

Data set [2] can be described thus: Metabolic stability in human liver microsomes. The following applies: 1 h, 37 °C, three experiments. The data set is classed as in vitro ADME. The protocol: The metabolic stability was investigated by incubating selected compounds with human liver microsomes (HLMs) for 1 h at 37 °C. The percentage of non-metabolized compounds and metabolites was analyzed by HPLC-UV-MS. […] HPLC analysis confirmed the presence of the oxidated metabolites in small percentages.
For the ADME property determination, an Agilent 1260 Infinity HPLC-DAD interfaced with an Agilent MSD 6130 (Agilent Technologies, Palo Alto, CA, USA) was used. Chromatographic conditions were optimized using a Phenomenex Kinetex C18-100 Å column (150 × 4.6 mm) with 5 µm particle size and gradient elution with a binary solution (eluent A: H2O; eluent B: ACN; both eluents were acidified with formic acid 0.1% v/v) at room temperature. The LC analyses started with 5% of B (from t = 0 to t = 1 min), then B was increased to 95% (from t = 1 to t = 10 min) and then kept at 95% (from t = 10 to t = 19 min) and finally returned to initial conditions in 1.0 min. The flow rate was 0.6 mL/min and the injection volume was 10 µL.
The test was performed as previously reported with minor modifications. Each compound was dissolved in DMSO and phosphate buffer (0.025 M, pH 7.4), and human liver microsomes (0.2 mg/mL) and a NADPH-regenerating system in MgCl2 48 mM were added to a final volume of 500 µL. This solution was incubated for 1 h at 37 °C and then the reaction was stopped and quenched using 1 mL of ACN. The reaction mixtures were then centrifuged (4000 rpm for 10 min) and the supernatant was taken, dried under nitrogen flow, and then resuspended in 100 µL of methanol. The parent drug and metabolites were subsequently determined using the chromatographic conditions described above. The percentage of non-metabolized compounds was calculated by comparison with reference solutions. The determination of metabolic stability for each compound was performed in three independent experiments.
In general terms: Liver microsomes are a subcellular fraction often used to study metabolism.

The nature of data set [3]: Median lethal dose assessment in Tenebrio molitor coleoptera. The following applies: in vivo, 200 mg/kg, single dose into hemocoel, 7 days observation. The data set is classed as in vivo. Here is the method: (§1) The median lethal dose (LD50) was determined for compound 17 in a Tenebrio molitor coleoptera (TMC) toxicity model published previously. Due to ethical reasons, and according to the 3Rs principle, the insect model was preferred to the murine model to preliminarily evaluate the potential in vivo toxicity. […] The experiment was repeated until LD50 was determined and finally confirmed with ten TMCs. […] Even if complete pharmacokinetics should be performed to determine plasmatic levels, the administered concentration was higher than IC50. Considering that no antiviral efficacy models have been developed in insects, future studies with optimized compounds should be translated into suitable models (i.e., mice).
(§2) Tenebrio molitor coleoptera (TMC) and pupae for acute toxicity tests were fed at the University of Siena (Siena, Italy) on a diet previously published. Pupae and adult TMC were reared in semi-dark conditions at a temperature of 27 ± 1 °C and a relative humidity (RH) of 40–50%.
(§3) Median lethal dose assessment was carried out as previously published. Three days after the mutation, TMCs were randomly chosen. The appropriate amount of compound 17 was solubilized at the appropriate dose expressed in mg/kg of insect weight. […]

In data set [4] the test system is Tenebrio molitor coleoptera (TMC). The description is as above. The data set is classed as in vivo. The following applies: acute administration. Here is the method:
as §1, §2, §3

What is called LD50 is the dose at which mortality reaches 50%.

Each structure is given as a SMILES string. “Also recorded” adds a separate entry of the source.

As for `CN1C(=O)c2ccc(NC(=O)c3cc4cccc(Cl)c4s3)cc2C1=O` [Compound 17], in the data set on ZIKV (VERO E6 cells), the “SI (Selectivity Index, ratio between CC50 and IC50)” value is above 200. Also, the IC50 in the data set on ZIKV (Zika virus, Vero C1008, read-out: IC50 ± SD (half-maximal inhibitory concentration, ZIKV plaque reduction)) came to 500 ± 100 nM. For the same compound, the CC50 at 3 days in data set [1] was above 100000 nM. In addition, the “HLM Stab.% ± SD (percentage of non-metabolized compound)” value in data set [2] was 96.39 ± 0.11%. This compound also had an LD50 at 7 days in data set [3] of 150 mg/kg. In addition, the “in vivo toxicity (in words)” value in data set [4] was “well tolerated; also recorded: less toxic than commonly used drugs such as paracetamol and carbamazepine”.
